# Data taken from ChEMBL document CHEMBL1811861 (Bioorg Med Chem, 2011).
# Legend:
# Human alphaherpesvirus 1 [1] = assay: microbe, parasite or virus in culture; conditions: Human alphaherpesvirus 1, KOS, HEL
# Human alphaherpesvirus 2 = assay: microbe, parasite or virus in culture; conditions: Human alphaherpesvirus 2, strain G, HEL
# Human alphaherpesvirus 3 [2] = assay: microbe, parasite or virus in culture; conditions: Human alphaherpesvirus 3, strain Oka vaccine, HEL
# Human alphaherpesvirus 3 [3] = assay: microbe, parasite or virus in culture; conditions: Human alphaherpesvirus 3, 07/1, HEL
# [4] = test system: Human immunodeficiency virus 1; assay: microbe, parasite or virus in culture; conditions: Human immunodeficiency virus 1, 3B, CCRF-CEM, 96 h
# [5] = test system: Human immunodeficiency virus 2; assay: microbe, parasite or virus in culture; conditions: Human immunodeficiency virus 2, ISOLATE ROD, CCRF-CEM, 96 h
# Influenza A virus [6] = assay: microbe, parasite or virus in culture; conditions: H1N1, MDCK
# Influenza A virus [7] = assay: microbe, parasite or virus in culture; conditions: H3N2, MDCK
# Influenza B virus = assay: microbe, parasite or virus in culture; conditions: MDCK
# HEL = conditions: human, 72 h
# [8] = cat, crfk, 72 h
# HeLa = conditions: human, 72 h
# CCRF-CEM = conditions: human, 72 h
# Human alphaherpesvirus 1 [9] = assay: microbe, parasite or virus in culture; conditions: Human alphaherpesvirus 1, KOS, HEL; remark: listed apart in the source
# Human betaherpesvirus 5 [10] = assay: microbe, parasite or virus in culture; conditions: Human betaherpesvirus 5, AD169, HEL
# Human betaherpesvirus 5 [11] = assay: microbe, parasite or virus in culture; conditions: Human betaherpesvirus 5, Davis, HEL
# Felid alphaherpesvirus 1 = assay: microbe, parasite or virus in culture; conditions: Felid alphaherpesvirus 1, CRFK
# Vaccinia virus = assay: microbe, parasite or virus in culture; conditions: Orthopoxvirus vaccinia, HEL
# [12] = test system: Vesicular stomatitis virus; assay: microbe, parasite or virus in culture; conditions: HEL
# [13] = test system: Vesicular stomatitis virus; assay: microbe, parasite or virus in culture; conditions: HeLa
# [14] = test system: Respiratory syncytial virus; assay: microbe, parasite or virus in culture; conditions: human respiratory syncytial virus, HeLa
# Coxsackievirus B4 [15] = assay: microbe, parasite or virus in culture; conditions: Enterovirus B, HeLa
# Coxsackievirus B4 [16] = assay: microbe, parasite or virus in culture; conditions: Enterovirus B, Vero
# Human respirovirus 3 = assay: microbe, parasite or virus in culture; conditions: Human respirovirus 3, Vero
# [17] = test system: Mammalian orthoreovirus 1; assay: microbe, parasite or virus in culture; conditions: Mammalian orthoreovirus 1, Vero
# Sindbis virus = assay: microbe, parasite or virus in culture; conditions: Vero
# Punta Toro virus = assay: microbe, parasite or virus in culture; conditions: Vero
# Feline coronavirus = assay: microbe, parasite or virus in culture; conditions: Alphacoronavirus 1, CRFK
# Human betaherpesvirus 5 [18] = assay: microbe, parasite or virus in culture; conditions: Human betaherpesvirus 5, AD169, HFF
# [19] = test system: Human immunodeficiency virus 1; assay: microbe, parasite or virus in culture; conditions: Human immunodeficiency virus 1, LAI, MT2
# in vitro = conditions: human, HeLa cells
structure (smiles),measurement,setting,value
Nc1ncnc2c1ncn2CCOCP(=O)(O)OCCOCCCCCCCCCCO,EC50,Human alphaherpesvirus 1 [1],122 µM
same,EC50,Human alphaherpesvirus 2,122 µM
same,EC50,Human alphaherpesvirus 3 [2],26 µM
same,EC50,Human alphaherpesvirus 3 [3],18.4 µM
same,EC50,[4],106 µM
same,EC50,[5],95 µM
same,EC50,Influenza A virus [6],> 42 µM
same,EC50,Influenza A virus [7],> 42 µM
same,EC50,Influenza B virus,> 42 µM
Nc1ncnc2c1ncn2CCOCP(=O)(O)OCCOCCCCCCCCC(O)CO (centres undefined),EC50,Human alphaherpesvirus 3 [2],61.4 µM
same,EC50,Human alphaherpesvirus 3 [3],≥ 72.7 µM
O=c1[nH]c(=O)n([C@H]2C[C@H](O)[C@@H](CO)O2)cc1/C=C/Br [BRIVUDINE],CC50,HEL,470 µM
same,EC50,Human alphaherpesvirus 1 [1],274 µM
same,EC50,Human alphaherpesvirus 2,45.7 µM
same,EC50,Human alphaherpesvirus 3 [2],0.013 µM
same,EC50,Human alphaherpesvirus 3 [3],≥ 105 µM
Nc1ncnc2c1ncn2CCOCP(=O)(OCCOCCCCCCCCCCO)OCCOCCCCCCCCCCO,CC50,HEL,62.5 µM
same,CC50,[8],> 148 µM
same,CC50,HeLa,148 µM
same,CC50,CCRF-CEM,13.5 µM
same,EC50,Human alphaherpesvirus 1 [9],> 29.7 µM
same,EC50,Human alphaherpesvirus 1 [1],> 29.7 µM
same,EC50,Human alphaherpesvirus 2,> 29.7 µM
same,EC50,Human alphaherpesvirus 3 [2],> 29.7 µM
same,EC50,Human alphaherpesvirus 3 [3],> 29.7 µM
same,EC50,Human betaherpesvirus 5 [10],> 29.7 µM
same,EC50,Human betaherpesvirus 5 [11],> 29.7 µM
same,EC50,Felid alphaherpesvirus 1,> 29.7 µM
same,EC50,Vaccinia virus,> 29.7 µM
same,EC50,[4],> 29.7 µM
same,EC50,[5],> 29.7 µM
same,EC50,[12],> 29.7 µM
same,EC50,[13],> 29.7 µM
same,EC50,[14],> 29.7 µM
same,EC50,Coxsackievirus B4 [15],> 29.7 µM
same,EC50,Coxsackievirus B4 [16],> 29.7 µM
same,EC50,Human respirovirus 3,> 29.7 µM
same,EC50,[17],> 29.7 µM
same,EC50,Sindbis virus,> 29.7 µM
same,EC50,Punta Toro virus,> 29.7 µM
same,EC50,Feline coronavirus,> 29.7 µM
same,EC50,Influenza A virus [6],> 5.9 µM
same,EC50,Influenza A virus [7],> 5.9 µM
same,EC50,Influenza B virus,> 5.9 µM
CCCCCCCCCCCCCCOCCCOP(=O)(O)CO[C@H](CO)Cn1ccc(N)nc1=O,EC50,Human betaherpesvirus 5 [18],0.002 µM
CCCCCCCCCCCCCCCCOCCCOP(=O)(O)CO[C@H](CO)Cn1ccc(N)nc1=O [BRINCIDOFOVIR],EC50,Human betaherpesvirus 5 [18],0.0009 µM
CCCCCCCCCCCCCCCCOCCCOP(=O)(O)COCCn1cnc2c(N)ncnc21,EC50,[19],0.015 nM
Nc1ncnc2c1ncn2CCOCP(=O)(OCCCCCCCCC(O)CO)OCCCCCCCCC(O)CO (centres undefined),EC50,Human alphaherpesvirus 3 [2],99 µM
same,EC50,Human alphaherpesvirus 3 [3],60.7 µM
same,EC50,Influenza A virus [7],> 324 µM
NC(=O)c1ncn([C@@H]2O[C@H](CO)[C@@H](O)[C@H]2O)n1 [RIBAVIRIN],CC50 at 72 h,in vitro,> 250 µM
same,EC50,[14],3 µM
same,EC50,Coxsackievirus B4 [16],> 250 µM
same,EC50,[17],≥ 174 µM
same,EC50,Sindbis virus,> 250 µM
same,EC50,Influenza A virus [6],9.8 µM
Nc1nc(O)c2ncn(COC(CO)CO)c2n1 [GANCICLOVIR],CC50,HEL,435 µM
same,CC50,[8],> 394 µM
same,EC50,Human alphaherpesvirus 2,0.027 µM
same,EC50,Felid alphaherpesvirus 1,8.1 µM
same,EC50,Vaccinia virus,> 250 µM
Nc1ncnc2c1ncn2CCOCP(=O)(O)OCCOCCOCCOCCOCCOCCO,EC50,Human alphaherpesvirus 3 [3],40.9 µM
CCOCCOCCOCCOCCOCCOCCOP(=O)(O)CO[C@H](CO)Cn1ccc(N)nc1=O,EC50,Human alphaherpesvirus 1 [1],3.5 µM
same,EC50,Human alphaherpesvirus 2,1.4 µM
same,EC50,Human betaherpesvirus 5 [10],0.95 µM
same,EC50,Felid alphaherpesvirus 1,2.8 µM
same,EC50,Vaccinia virus,15.7 µM
Nc1nc2c(ncn2COCCO)c(=O)[nH]1 [ACYCLOVIR],CC50,HEL,≥ 1420 µM
same,EC50,Human alphaherpesvirus 3 [3],69.3 µM
Cc1oc(=O)oc1COP(=O)(O)COCCn1cnc2c(N)ncnc21,CC50,HEL,117 µM
same,CC50,CCRF-CEM,88 µM
same,EC50,Human alphaherpesvirus 1 [9],51.9 µM
same,EC50,Human alphaherpesvirus 1 [1],51.9 µM
same,EC50,Human alphaherpesvirus 2,98.6 µM
same,EC50,Human alphaherpesvirus 3 [2],1.92 µM
same,EC50,Human alphaherpesvirus 3 [3],7.6 µM
same,EC50,[4],10.6 µM
same,EC50,[5],9.3 µM
Nc1ccn(C[C@@H](CO)OCP(=O)(O)O)c(=O)n1 [CIDOFOVIR],CC50,HEL,234 µM
same,EC50,Human alphaherpesvirus 1 [9],1.6 µM
same,EC50,Human alphaherpesvirus 2,1.43 µM
same,EC50,Human alphaherpesvirus 3 [2],0.29 µM
same,EC50,Human alphaherpesvirus 3 [3],0.1 µM
same,EC50,Human betaherpesvirus 5 [10],0.92 µM
same,EC50,Human betaherpesvirus 5 [11],0.94 µM
same,EC50,Vaccinia virus,7 µM
same,EC50,Human betaherpesvirus 5 [18],1.2 µM
Nc1ncnc2c1ncn2CCOCP(=O)(O)OCCCCCCCCC(O)CO (centres undefined),CC50,[8],9.4 µM
same,EC50,Felid alphaherpesvirus 1,> 9 µM
same,EC50,Feline coronavirus,> 9 µM
CCOC(=O)C1=C[C@@H](OC(CC)CC)[C@H](NC(C)=O)[C@@H](N)C1 [OSELTAMIVIR],EC50,Influenza A virus [6],12 µM
same,EC50,Influenza B virus,23.5 µM
Nc1ncnc2c1ncn2CCOCP(=O)(O)OCCCCCCCCCCO,EC50,Human alphaherpesvirus 3 [2],114 µM
same,EC50,Human alphaherpesvirus 3 [3],64.3 µM
Nc1ncnc2c1ncn2CCOCP(=O)(OCCCCCCCCCCO)OCCCCCCCCCCO,EC50,Human alphaherpesvirus 3 [2],> 34 µM
same,EC50,Human alphaherpesvirus 3 [3],> 34 µM
same,EC50,Human betaherpesvirus 5 [10],> 34 µM
same,EC50,Human betaherpesvirus 5 [11],> 34 µM
same,EC50,[14],99 µM
same,EC50,Coxsackievirus B4 [16],> 34 µM
same,EC50,Human respirovirus 3,> 34 µM
same,EC50,[17],> 34 µM
same,EC50,Sindbis virus,> 34 µM
same,EC50,Punta Toro virus,> 34 µM
Nc1ncnc2c1ncn2CCOCP(=O)(O)O [ADEFOVIR],CC50,HeLa,> 250 µM
same,CC50,CCRF-CEM,164 µM
same,EC50,Human alphaherpesvirus 1 [9],42.5 µM
same,EC50,Human alphaherpesvirus 1 [1],41.4 µM
same,EC50,Human alphaherpesvirus 2,24.9 µM
same,EC50,Human alphaherpesvirus 3 [2],6.7 µM
same,EC50,Human alphaherpesvirus 3 [3],5 µM
same,EC50,Human betaherpesvirus 5 [10],118 µM
same,EC50,Human betaherpesvirus 5 [11],115 µM
same,EC50,[4],10.4 µM
same,EC50,[5],8.6 µM
same,EC50,[19],1100 nM
Nc1ccn(C[C@@H](CO)OCP(=O)(O)OCCOCCOCCOCCOCCOCCO)c(=O)n1,EC50,Human alphaherpesvirus 1 [9],16.5 µM
same,EC50,Human alphaherpesvirus 1 [1],12.9 µM
same,EC50,Human alphaherpesvirus 2,7.4 µM
same,EC50,Human alphaherpesvirus 3 [2],1.91 µM
same,EC50,Human alphaherpesvirus 3 [3],0.6 µM
same,EC50,Human betaherpesvirus 5 [10],0.8 µM
same,EC50,Human betaherpesvirus 5 [11],0.7 µM
same,EC50,Felid alphaherpesvirus 1,14.5 µM
same,EC50,Vaccinia virus,107 µM
Nc1ncnc2c1ncn2CCOCP(=O)(OCCOCCCCCCCCC(O)CO)OCCOCCCCCCCCC(O)CO (centres undefined),EC50,Human betaherpesvirus 5 [10],> 28.3 µM
CCOCCOCCOCCOCCOCCOCCOP(=O)(O)COCCn1cnc2c(N)ncnc21,CC50,HEL,146 µM
same,EC50,Human alphaherpesvirus 3 [2],74.3 µM
same,EC50,Human alphaherpesvirus 3 [3],69 µM
